Values quoted from earlier work, collected in patent US20060134230A1, “Weight loss composition and formulation” (priority 2004, published 2006).

Assays:
lipases = details: in vivo
[1] = system: oxidative phosphorylation
fatty acid synthase = fatty acid synthase (Homo sapiens, UniProt P49327)
3T3-L1 = 3T3-L1 preadipocyte
[2] = system: glucose transport at the brush border of the small intestine; details: in vivo

Sequence of fatty acid synthase (P49327 whole entry, species assumed): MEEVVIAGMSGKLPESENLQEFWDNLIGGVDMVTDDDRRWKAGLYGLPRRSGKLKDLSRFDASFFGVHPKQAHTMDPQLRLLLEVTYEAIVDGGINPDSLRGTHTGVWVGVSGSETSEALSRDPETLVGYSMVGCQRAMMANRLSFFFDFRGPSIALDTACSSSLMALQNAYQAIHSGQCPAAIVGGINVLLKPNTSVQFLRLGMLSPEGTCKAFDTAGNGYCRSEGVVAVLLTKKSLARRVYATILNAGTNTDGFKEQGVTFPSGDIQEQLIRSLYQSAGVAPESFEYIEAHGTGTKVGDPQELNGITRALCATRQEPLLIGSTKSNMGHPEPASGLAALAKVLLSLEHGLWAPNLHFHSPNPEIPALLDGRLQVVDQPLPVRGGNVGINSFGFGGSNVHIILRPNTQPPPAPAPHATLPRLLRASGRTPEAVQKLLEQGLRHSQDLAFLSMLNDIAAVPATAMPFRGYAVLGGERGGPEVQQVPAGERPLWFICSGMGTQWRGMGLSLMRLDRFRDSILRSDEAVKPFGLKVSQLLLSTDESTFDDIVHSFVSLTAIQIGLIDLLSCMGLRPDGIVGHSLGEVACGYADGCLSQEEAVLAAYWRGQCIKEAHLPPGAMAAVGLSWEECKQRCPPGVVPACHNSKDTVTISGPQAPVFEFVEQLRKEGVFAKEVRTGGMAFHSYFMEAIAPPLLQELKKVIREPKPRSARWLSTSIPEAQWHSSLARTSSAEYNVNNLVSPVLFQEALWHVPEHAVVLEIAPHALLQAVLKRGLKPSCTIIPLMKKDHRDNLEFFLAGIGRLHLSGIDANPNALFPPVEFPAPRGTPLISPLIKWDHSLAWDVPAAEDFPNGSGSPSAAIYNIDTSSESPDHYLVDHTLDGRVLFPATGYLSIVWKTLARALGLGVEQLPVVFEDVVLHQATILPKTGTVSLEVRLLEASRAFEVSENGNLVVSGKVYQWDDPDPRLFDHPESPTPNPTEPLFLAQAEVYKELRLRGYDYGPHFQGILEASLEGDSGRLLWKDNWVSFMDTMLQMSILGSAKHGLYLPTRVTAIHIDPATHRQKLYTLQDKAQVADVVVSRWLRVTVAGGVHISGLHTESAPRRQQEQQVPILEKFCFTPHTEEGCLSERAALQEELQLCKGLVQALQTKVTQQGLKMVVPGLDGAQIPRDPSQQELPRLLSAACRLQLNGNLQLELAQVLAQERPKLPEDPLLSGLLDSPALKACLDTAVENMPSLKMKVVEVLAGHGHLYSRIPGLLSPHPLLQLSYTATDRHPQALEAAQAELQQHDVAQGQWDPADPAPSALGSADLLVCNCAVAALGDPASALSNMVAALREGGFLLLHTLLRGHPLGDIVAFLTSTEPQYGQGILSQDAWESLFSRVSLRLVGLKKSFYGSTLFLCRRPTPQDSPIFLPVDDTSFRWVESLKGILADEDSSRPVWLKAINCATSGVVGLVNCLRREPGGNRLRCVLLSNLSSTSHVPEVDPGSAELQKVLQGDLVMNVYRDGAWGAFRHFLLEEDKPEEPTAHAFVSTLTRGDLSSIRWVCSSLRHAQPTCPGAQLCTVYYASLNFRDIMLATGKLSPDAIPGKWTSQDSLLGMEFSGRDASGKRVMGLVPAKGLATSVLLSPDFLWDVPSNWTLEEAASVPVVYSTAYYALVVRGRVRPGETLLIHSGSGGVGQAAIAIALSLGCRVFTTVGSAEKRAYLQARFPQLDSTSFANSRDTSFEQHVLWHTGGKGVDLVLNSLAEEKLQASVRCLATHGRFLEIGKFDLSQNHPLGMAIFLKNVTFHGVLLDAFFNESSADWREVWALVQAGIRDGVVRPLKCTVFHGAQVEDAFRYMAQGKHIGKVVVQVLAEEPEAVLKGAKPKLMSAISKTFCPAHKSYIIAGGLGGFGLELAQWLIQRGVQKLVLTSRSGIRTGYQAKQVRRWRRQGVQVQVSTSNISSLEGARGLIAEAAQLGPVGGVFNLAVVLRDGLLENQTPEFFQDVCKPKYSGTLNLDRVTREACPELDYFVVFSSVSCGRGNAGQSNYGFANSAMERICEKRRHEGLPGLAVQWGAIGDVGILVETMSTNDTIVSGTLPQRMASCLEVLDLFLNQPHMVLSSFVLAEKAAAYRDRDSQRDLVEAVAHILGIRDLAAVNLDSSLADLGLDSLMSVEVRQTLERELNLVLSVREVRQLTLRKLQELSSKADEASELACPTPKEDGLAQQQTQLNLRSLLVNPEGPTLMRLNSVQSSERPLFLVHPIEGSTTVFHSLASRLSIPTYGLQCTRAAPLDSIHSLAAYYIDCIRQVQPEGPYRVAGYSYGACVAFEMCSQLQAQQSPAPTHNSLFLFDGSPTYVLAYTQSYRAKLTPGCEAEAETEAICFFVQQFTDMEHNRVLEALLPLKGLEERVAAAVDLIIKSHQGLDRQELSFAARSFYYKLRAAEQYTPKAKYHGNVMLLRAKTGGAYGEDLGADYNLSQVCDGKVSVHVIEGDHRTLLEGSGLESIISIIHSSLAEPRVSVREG

## CCCCCCCCCCC[C@@H](C[C@@H]1OC(=O)[C@H]1CCCCCC)OC(=O)[C@H](CC(C)C)NC=O [Xenical]
lipases
  dietary fat blocked from being absorbed: about 30%

## C=CC(C)(C)c1cc2cc3c(cc2oc1=O)O[C@H](C(C)(C)O)C3 [chalepin]
[1]
  oxidative uncoupling: act as oxidative uncouplers

## Cc1cc(O)c2c(c1)C(=O)c1cc(O)cc(O)c1C2=O [emodin, 3-methyl-1,6,8-trihydroxy-anthraquinone]
Fatty acid synthase
  inhibition effect on fatty acid synthase: inhibition effect on fatty acid synthase, which is dose dependent
3T3-L1
  inhibition of differentiation of 3T3-L1: inhibition of differentiation of 3T3-L1

## CC(C)=CCOc1c2occc2cc2ccc(=O)oc12 [imperatorin]
[1]
  oxidative uncoupling: act as oxidative uncouplers

## CC(C)(O)[C@@H]1Cc2cc3ccc(=O)oc3cc2O1 [marmesin]
[1]
  oxidative uncoupling: act as oxidative uncouplers

## CC1(C)CC[C@]2(C(=O)O)CC[C@]3(C)C(=CC[C@@H]4[C@@]5(C)CC[C@H](O)C(C)(C)[C@@H]5CC[C@]43C)[C@@H]2C1 [oleanic acid]
[2]
  glucose transport at the brush border of the small intestine: inhibiting glucose transport at the brush border of the small intestine
  transfer of glucose from the stomach to the small intestine: suppress the transfer of glucose from the stomach to the small intestine
